The results in this text go back to article PMC8119466, “A screen of FDA-approved drugs identifies inhibitors of protein tyrosine phosphatase 4A3 (PTP4A3 or PRL-3)” (Scientific Reports, 2021).

Common to all, as to format: biochemical
For test [1], the target named is T1, recombinant PRL-3 (Homo sapiens, UniProt O75365).
T1 construct: 6xHis (N, cleaved yes); made in house; host or cells: E. coli One Shot BL21 Star
Nature of the test: In vitro phosphatase assay (DiFMUP hydrolysis), PRL-3. Further: test concentration or dose not given here.

Test [2] deals with T2, recombinant PRL-2 (Homo sapiens, UniProt Q12974).
T2 construct: 6xHis (N, cleaved yes); made in house; host or cells: E. coli One Shot BL21 Star
T2 sequence (Q12974 1-167): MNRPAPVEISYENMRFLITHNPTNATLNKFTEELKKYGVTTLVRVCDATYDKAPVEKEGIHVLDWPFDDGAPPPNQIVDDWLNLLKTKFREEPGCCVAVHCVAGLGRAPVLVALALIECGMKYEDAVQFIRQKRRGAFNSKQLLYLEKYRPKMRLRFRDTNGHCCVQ
Nature of the test: In vitro phosphatase assay (DiFMUP hydrolysis), PRL-2.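 Further: PRL-2 activity read as DiFMUP hydrolysis after 20 min at room temperature with drug, enzyme first pre-reduced at 4 °C for 20 min.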

Test [3] has as its target T3, recombinant PRL-1 (Homo sapiens, UniProt Q93096).
T3 construct: 6xHis (N, cleaved yes); made in house; host or cells: E. coli One Shot BL21 Star
T3 sequence (Q93096 1-173): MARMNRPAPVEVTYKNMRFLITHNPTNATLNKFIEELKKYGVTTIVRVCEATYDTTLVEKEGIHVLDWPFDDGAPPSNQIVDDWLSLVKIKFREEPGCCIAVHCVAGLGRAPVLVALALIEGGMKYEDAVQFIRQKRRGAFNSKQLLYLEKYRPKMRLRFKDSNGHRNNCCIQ
Nature of the test: In vitro phosphatase assay (DiFMUP hydrolysis), PRL-1. Further: test concentration or dose not given here.

Where [4] appears, read: FDA-approved drug screen, compared to DMSO.

Each structure is given as a SMILES string. Structures can show the parent of a compound that is named as a salt. Where two headings read alike, the source gives them in different places.

T1 sequence (O75365 whole entry): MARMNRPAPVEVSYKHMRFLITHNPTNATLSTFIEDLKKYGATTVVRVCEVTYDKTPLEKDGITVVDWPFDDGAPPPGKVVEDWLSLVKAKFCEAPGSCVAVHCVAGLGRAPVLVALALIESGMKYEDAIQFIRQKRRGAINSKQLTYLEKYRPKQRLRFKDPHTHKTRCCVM

Consider `C[n+]1ccccc1/C=N/O.[Cl-]` [Pralidoxime (chloride)], for which the “% Phosphatase Activity (compared to DMSO) PRL-3” value in test [1] (setting [4]) was found to be 105%. In addition, the “% Phosphatase Activity (compared to DMSO) PRL-2” value in test [2] (setting [4]) was 91%. In addition, the “% Phosphatase Activity (compared to DMSO) PRL-1” value in test [3] (setting [4]) was determined as 99%.

Take `CCCN[C@H]1CCc2nc(N)sc2C1` [Pramipexole dihydrochloride monohydrate]: the “% Phosphatase Activity (compared to DMSO) PRL-3” value in test [1] was 90%. For the same compound, in test [2], the “% Phosphatase Activity (compared to DMSO) PRL-2” value amounted to 98%. Besides, the “% Phosphatase Activity (compared to DMSO) PRL-1” value in test [3] is 87%.

Regarding `CCCN[C@H]1CCc2nc(N)sc2C1` [Pramipexole], the “% Phosphatase Activity (compared to DMSO) PRL-3” value in test [1] worked out at 72%. The “% Phosphatase Activity (compared to DMSO) PRL-2” value in test [2] is 106%. Also, in test [3], the “% Phosphatase Activity (compared to DMSO) PRL-1” value came out at 109%.

Take `CCCCOc1ccc(OCCCN2CCOCC2)cc1` [Pramoxine HCl]: in test [1] (setting [4]), the “% Phosphatase Activity (compared to DMSO) PRL-3” value is 74%. In test [2] (setting [4]), the “% Phosphatase Activity (compared to DMSO) PRL-2” value amounted to 91%. In test [3] (setting [4]), the “% Phosphatase Activity (compared to DMSO) PRL-1” value is 82%.

For the compound `O=C(Nc1cccc2c(=O)cc(-c3nnn[nH]3)oc12)c1ccc(OCCCCc2ccccc2)cc1` [Pranlukast], the “% Phosphatase Activity (compared to DMSO) PRL-3” value in test [1] (setting [4]) is 54%. Besides, the “% Phosphatase Activity (compared to DMSO) PRL-2” value in test [2] (setting [4]) is listed as 205%. In addition, in test [3] (setting [4]), the “% Phosphatase Activity (compared to DMSO) PRL-1” value was determined as 147%.

Turning to `CC(C(=O)O)c1ccc2c(c1)Cc1cccnc1O2` (stereo not drawn) [Pranoprofen], the “% Phosphatase Activity (compared to DMSO) PRL-3” value in test [1] (setting [4]) is 92%. The “% Phosphatase Activity (compared to DMSO) PRL-2” value in test [2] (setting [4]) came to 87%. Further, the “% Phosphatase Activity (compared to DMSO) PRL-1” value in test [3] (setting [4]) is listed as 97%.

As for `CC(=O)Oc1cc2c(s1)CCN(C(C(=O)C1CC1)c1ccccc1F)C2` (stereo not drawn) [Prasugrel Hydrochloride], in test [1] (setting [4]), the “% Phosphatase Activity (compared to DMSO) PRL-3” value was determined as 87%. In addition, the “% Phosphatase Activity (compared to DMSO) PRL-2” value in test [2] (setting [4]) was 109%. In addition, the “% Phosphatase Activity (compared to DMSO) PRL-1” value in test [3] (setting [4]) was 92%.

As for `CC(=O)Oc1cc2c(s1)CCN(C(C(=O)C1CC1)c1ccccc1F)C2` (stereo not drawn) [Prasugrel], the “% Phosphatase Activity (compared to DMSO) PRL-3” value in test [1] (setting [4]) is reported as 79%. In addition, the “% Phosphatase Activity (compared to DMSO) PRL-2” value in test [2] (setting [4]) came to 88%. In addition, the “% Phosphatase Activity (compared to DMSO) PRL-1” value in test [3] (setting [4]) amounted to 91%.

Consider `CC[C@H](C)C(=O)O[C@H]1C[C@H](O)C=C2C=C[C@H](C)[C@H](CC[C@@H](O)C[C@@H](O)CC(=O)O)[C@H]21` [Pravastatin sodium], for which the “% Phosphatase Activity (compared to DMSO) PRL-3” value in test [1] (setting [4]) is given as 93%. The “% Phosphatase Activity (compared to DMSO) PRL-2” value in test [2] (setting [4]) is given as 113%. The “% Phosphatase Activity (compared to DMSO) PRL-1” value in test [3] (setting [4]) is recorded as 93%.

Consider `O=C(C1CCCCC1)N1CC(=O)N2CCc3ccccc3C2C1` (stereo not drawn) [Praziquantel], for which the “% Phosphatase Activity (compared to DMSO) PRL-3” value in test [1] (setting [4]) is recorded as 73%. Besides, the “% Phosphatase Activity (compared to DMSO) PRL-2” value in test [2] (setting [4]) was 88%. Moreover, the “% Phosphatase Activity (compared to DMSO) PRL-1” value in test [3] (setting [4]) is reported as 102%.

In the case of `COc1cc2nc(N3CCN(C(=O)c4ccco4)CC3)nc(N)c2cc1OC` [Prazosin HCl], the “% Phosphatase Activity (compared to DMSO) PRL-3” value in test [1] (setting [4]) is given as 263%. In addition, in test [2] (setting [4]), the “% Phosphatase Activity (compared to DMSO) PRL-2” value was found to be 435%. Moreover, the “% Phosphatase Activity (compared to DMSO) PRL-1” value in test [3] (setting [4]) is 460%.

Consider `CC(=O)OCC(=O)[C@@]1(O)CC[C@H]2[C@@H]3CCC4=CC(=O)C=C[C@]4(C)[C@H]3[C@@H](O)C[C@@]21C` [Prednisolone Acetate], for which, in test [1] (setting [4]), the “% Phosphatase Activity (compared to DMSO) PRL-3” value is listed as 80%. In addition, the “% Phosphatase Activity (compared to DMSO) PRL-2” value in test [2] (setting [4]) was found to be 102%. Further, the “% Phosphatase Activity (compared to DMSO) PRL-1” value in test [3] (setting [4]) stood at 105%.

With `C[C@]12C=CC(=O)C=C1CC[C@@H]1[C@@H]2[C@@H](O)C[C@@]2(C)[C@H]1CC[C@]2(O)C(=O)CO` [Prednisolone], in test [1] (setting [4]), the “% Phosphatase Activity (compared to DMSO) PRL-3” value is given as 103%. Also, in test [2] (setting [4]), the “% Phosphatase Activity (compared to DMSO) PRL-2” value stood at 99%. Besides, the “% Phosphatase Activity (compared to DMSO) PRL-1” value in test [3] (setting [4]) was 89%.

On to `C[C@]12C=CC(=O)C=C1CC[C@@H]1[C@@H]2C(=O)C[C@@]2(C)[C@H]1CC[C@]2(O)C(=O)CO` [Prednisone], for which the “% Phosphatase Activity (compared to DMSO) PRL-3” value in test [1] (setting [4]) is 80%. For the same compound, in test [2] (setting [4]), the “% Phosphatase Activity (compared to DMSO) PRL-2” value was determined as 91%. The “% Phosphatase Activity (compared to DMSO) PRL-1” value in test [3] (setting [4]) was 98%.

Turning to `CC(=O)[C@H]1CC[C@H]2[C@@H]3CC=C4C[C@@H](O)CC[C@]4(C)[C@H]3CC[C@]12C` [Pregnenolone], the “% Phosphatase Activity (compared to DMSO) PRL-3” value in test [1] (setting [4]) stood at 88%. Moreover, the “% Phosphatase Activity (compared to DMSO) PRL-2” value in test [2] (setting [4]) came out at 101%. Besides, the “% Phosphatase Activity (compared to DMSO) PRL-1” value in test [3] (setting [4]) was determined as 89%.

With `CCCNC(C)C(=O)Nc1ccccc1C` (stereo not drawn) [Prilocaine], the “% Phosphatase Activity (compared to DMSO) PRL-3” value in test [1] (setting [4]) came to 78%. Further, the “% Phosphatase Activity (compared to DMSO) PRL-2” value in test [2] (setting [4]) is on record as 107%. Further, the “% Phosphatase Activity (compared to DMSO) PRL-1” value in test [3] (setting [4]) was determined as 97%.

Take `CCC1(c2ccccc2)C(=O)NCNC1=O` [Primidone]: the “% Phosphatase Activity (compared to DMSO) PRL-3” value in test [1] (setting [4]) turned out to be 79%. In addition, the “% Phosphatase Activity (compared to DMSO) PRL-2” value in test [2] (setting [4]) is 93%. Also, the “% Phosphatase Activity (compared to DMSO) PRL-1” value in test [3] (setting [4]) came out at 84%.

With `CCCC(C(=O)OCCN(CC)CC)(c1ccccc1)c1ccccc1` [Proadifen HCl], the “% Phosphatase Activity (compared to DMSO) PRL-3” value in test [1] (setting [4]) was 105%. For the same compound, in test [2] (setting [4]), the “% Phosphatase Activity (compared to DMSO) PRL-2” value came to 106%. For the same compound, the “% Phosphatase Activity (compared to DMSO) PRL-1” value in test [3] (setting [4]) was 94%.
